Molecules are shown by their SMILES.

These results are taken from patent US8642593B2, “2,4-pyrimidinediamine compounds and prodrugs and their uses” (Rigel Pharmaceuticals, Inc., priority 2009, dated 2014).

The target of one experiment is T1, Ret kinase (Homo sapiens, UniProt P07949).
T1 construct: purchased Millipore #14-570
T1 sequence (P07949 658-1114 limits assumed): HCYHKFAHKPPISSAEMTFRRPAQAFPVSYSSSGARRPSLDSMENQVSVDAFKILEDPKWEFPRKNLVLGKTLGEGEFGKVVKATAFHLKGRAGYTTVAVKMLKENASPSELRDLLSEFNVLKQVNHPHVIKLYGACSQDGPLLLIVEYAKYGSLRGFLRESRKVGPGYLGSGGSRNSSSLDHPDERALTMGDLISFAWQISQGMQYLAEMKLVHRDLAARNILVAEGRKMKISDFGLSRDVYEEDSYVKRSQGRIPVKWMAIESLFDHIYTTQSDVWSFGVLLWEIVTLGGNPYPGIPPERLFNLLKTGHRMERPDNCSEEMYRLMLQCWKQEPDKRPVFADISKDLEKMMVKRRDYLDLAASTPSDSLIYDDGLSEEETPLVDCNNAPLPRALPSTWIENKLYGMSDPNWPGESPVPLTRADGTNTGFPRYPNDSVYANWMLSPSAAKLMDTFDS
The experiment can be described thus: Biochemical Ret Assay (ELISA-based). Particulars: for IC50: Table 2, unit inferred, read-out: Biochem Ret; for selectivity over Ret kinase compared with the control: vs control compound. The method, then:
Compounds are tested for the ability to inhibit Ret kinase in an ELISA-based assay. The assay is carried out in a Costar white 96 well plate (Fisher Scientific, #07-200-591) coated overnight with 0.01 mg/mL NeutrAvidin (Pierce, 100 μL/well) at 4° C. The pre-coated 96 well plate is blocked with 2% BSA in PBST buffer for at least 1 h at room temperature before starting the assay. Serially diluted test compound stock solution is prepared separately in DMSO solution starting from 300 μM, and 2 μL/well of this diluted compound (3% DMSO final concentration) is added directly to the NeutrAvidin coated assay plate containing 55.5 μL/well of kinase reaction buffer (20 mM HEPES, pH 7.4, 5 mM MgCl2, 1 mM DTT, 0.01% Brij-35) pre-mixed with ATP and kinase substrate (TK2 peptide). Reaction is initiated by adding 2.5 μL/well Ret kinase (Millipore, #14-570) resulting in a final reaction volume of […]. The reaction is allowed to continue for 30 minutes at room temperature. […] After completing the reaction, the wells are washed three times with PBST and incubated for 1 h at room temperature with 100 μL/well of phosphopeptide detection antibody solution (mixture of 1:10000 diluted mouse anti-pTyr monoclonal antibody (Cell Signal Technology, #9411) and 1:10000 diluted goat HRP-conjugated anti-mouse IgG (Jackson Immunoresearch, #115-035-003)). The plate is washed three times with PBST, developed with supersignal ELISA pico chemiluminescent substrate (Pierce), and read on a SpectraMax M5 microplate reader (Molecular Devices).

For experiment [1], the target named is T2, VEGF-induced phosphorylation of VEGFR in HUVEC cells (Homo sapiens, UniProt P35968).
T2 construct: VEGF-induced phosphorylation of VEGFR in HUVEC cells; host or cells: HUVEC cells
The experiment can be described thus: Cellular VEGFR Assay. Format: cell-based. Particulars: for IC50: HUVEC cells, Table 2, unit inferred, read-out: Cellular VEGFR2; for selectivity against VEGF as compared to the control: vs control compound. On the procedure: The coated plates are then blocked with 2% BSA in PBS for 2 hours.
Cells are washed 1× with PBS. 100 μL starvation medium (EBM2 media, Cambrex, #CC3156, containing 1% BSA and 0.2% FBS) is added and cells are returned to the incubator for 20-24 hours. Test compounds or control drugs are serially diluted in DMSO in a compound plate and further diluted 1:250 in starvation medium. 100 μL, of this 2× concentration is dosed to the cells. […] Plates are then placed on a rocker/shaker at 4° C. for 1 hour.
Phosphorylated VEGFR2 is determined by ELISA. After a wash with TBST, 30 μL/well of the cell lysate is transferred into the anti-human VEGFR2 mAb-coated plates (described above) containing 200 μL/well of 1% BSA in PBS, and incubated with shaking at 4° C. overnight. […] The signal is read using a SpectraMax M5 plate reader.

T2 sequence (P35968 20-1356): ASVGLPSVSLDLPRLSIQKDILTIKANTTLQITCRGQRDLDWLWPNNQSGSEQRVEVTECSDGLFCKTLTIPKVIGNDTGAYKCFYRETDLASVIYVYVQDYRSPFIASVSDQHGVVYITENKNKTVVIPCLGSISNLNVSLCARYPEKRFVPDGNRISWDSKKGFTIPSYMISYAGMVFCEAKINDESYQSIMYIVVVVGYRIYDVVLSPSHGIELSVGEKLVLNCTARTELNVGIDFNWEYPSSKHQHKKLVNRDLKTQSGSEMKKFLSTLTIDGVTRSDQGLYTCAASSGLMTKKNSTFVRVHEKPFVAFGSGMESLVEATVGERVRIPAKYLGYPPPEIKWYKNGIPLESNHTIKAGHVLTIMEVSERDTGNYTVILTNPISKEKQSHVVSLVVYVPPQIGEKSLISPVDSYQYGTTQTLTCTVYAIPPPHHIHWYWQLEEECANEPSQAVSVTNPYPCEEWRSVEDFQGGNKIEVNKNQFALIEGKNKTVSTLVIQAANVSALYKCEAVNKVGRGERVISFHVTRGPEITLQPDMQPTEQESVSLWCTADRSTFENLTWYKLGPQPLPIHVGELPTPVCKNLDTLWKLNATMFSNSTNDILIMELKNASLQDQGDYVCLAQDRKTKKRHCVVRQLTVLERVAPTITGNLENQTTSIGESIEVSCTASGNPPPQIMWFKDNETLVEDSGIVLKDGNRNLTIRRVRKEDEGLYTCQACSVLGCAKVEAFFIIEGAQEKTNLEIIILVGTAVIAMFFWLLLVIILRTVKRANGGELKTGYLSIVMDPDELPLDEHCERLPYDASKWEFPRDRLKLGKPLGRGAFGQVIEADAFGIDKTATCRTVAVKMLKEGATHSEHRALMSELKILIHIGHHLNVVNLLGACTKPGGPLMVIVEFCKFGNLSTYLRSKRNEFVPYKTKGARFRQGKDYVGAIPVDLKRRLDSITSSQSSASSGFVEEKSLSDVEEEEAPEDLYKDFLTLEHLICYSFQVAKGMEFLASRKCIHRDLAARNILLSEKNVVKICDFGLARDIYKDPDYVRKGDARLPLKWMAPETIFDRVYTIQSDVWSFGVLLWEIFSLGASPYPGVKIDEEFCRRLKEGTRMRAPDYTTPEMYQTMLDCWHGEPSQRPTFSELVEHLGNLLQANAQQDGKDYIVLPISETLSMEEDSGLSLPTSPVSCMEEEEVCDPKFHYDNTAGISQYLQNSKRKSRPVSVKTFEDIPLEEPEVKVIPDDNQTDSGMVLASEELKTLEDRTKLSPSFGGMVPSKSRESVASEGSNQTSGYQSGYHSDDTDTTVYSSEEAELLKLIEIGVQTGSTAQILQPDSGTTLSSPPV

For `CC1(C)Oc2ccc(Nc3nc(Nc4ccc(N5CCOCC5)nc4)ncc3F)nc2NC1=O` [Compound 1, N4-(2,2-Dimethyl-3-oxo-4H-5-pyrido[1,4]oxazin-6-yl)-5-fluoro-N2-[6-morpholinopyridin-3-yl]-2,4-pyrimidinediamine], at Ret kinase, the IC50 was 48 nM and the “selectivity over Ret kinase compared with the control” value was “significantly more selective”. Moreover, in experiment [1], the IC50 came out at 16800 nM and the “selectivity against VEGF as compared to the control” value was “significantly increased selectivity”.

Turning to `CC1(C)Oc2ccc(Nc3nc(Nc4ccc(N5CCOCC5)cc4)ncc3F)nc2NC1=O` [Compound 3, N4-(2,2-Dimethyl-3-oxo-4H-5-pyrido[1,4]oxazin-6-yl)-5-fluoro-N2-(4-morpholinophenyl)-2,4-pyrimidinediamine], on Ret kinase, the IC50 worked out at 6 nM and the “selectivity over Ret kinase compared with the control” value is listed as “significantly more selective”. Further, in experiment [1], the IC50 turned out to be 5230 nM and the “selectivity against VEGF as compared to the control” value is reported as “significantly increased selectivity”.
